Assay [1] concerns the target T1, Peroxisome proliferator-activated receptor gamma (Homo sapiens, UniProt P37231).
T1 sequence (P37231 whole entry): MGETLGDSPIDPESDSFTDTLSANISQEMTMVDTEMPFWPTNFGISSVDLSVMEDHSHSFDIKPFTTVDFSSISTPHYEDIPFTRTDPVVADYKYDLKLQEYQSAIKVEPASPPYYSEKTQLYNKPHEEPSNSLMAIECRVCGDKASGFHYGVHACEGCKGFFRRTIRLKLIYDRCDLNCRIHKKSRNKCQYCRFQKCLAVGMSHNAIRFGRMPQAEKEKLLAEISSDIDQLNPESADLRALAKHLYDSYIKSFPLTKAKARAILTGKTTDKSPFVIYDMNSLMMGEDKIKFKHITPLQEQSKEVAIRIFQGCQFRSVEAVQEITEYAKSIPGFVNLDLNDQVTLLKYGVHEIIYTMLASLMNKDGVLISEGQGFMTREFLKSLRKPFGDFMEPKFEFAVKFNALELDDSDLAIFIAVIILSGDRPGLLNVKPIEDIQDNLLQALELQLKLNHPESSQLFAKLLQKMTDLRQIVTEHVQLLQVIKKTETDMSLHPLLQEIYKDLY
The experiment in a line: […] of human Peroxisome proliferator activated receptor gamma in CHO-K1 cells;ia means inactive at 10 uM. The assay is classed as cell-based.

Assay [2] deals with T2, Peroxisome proliferator-activated receptor alpha (Homo sapiens, UniProt Q07869).
T2 sequence (Q07869 whole entry): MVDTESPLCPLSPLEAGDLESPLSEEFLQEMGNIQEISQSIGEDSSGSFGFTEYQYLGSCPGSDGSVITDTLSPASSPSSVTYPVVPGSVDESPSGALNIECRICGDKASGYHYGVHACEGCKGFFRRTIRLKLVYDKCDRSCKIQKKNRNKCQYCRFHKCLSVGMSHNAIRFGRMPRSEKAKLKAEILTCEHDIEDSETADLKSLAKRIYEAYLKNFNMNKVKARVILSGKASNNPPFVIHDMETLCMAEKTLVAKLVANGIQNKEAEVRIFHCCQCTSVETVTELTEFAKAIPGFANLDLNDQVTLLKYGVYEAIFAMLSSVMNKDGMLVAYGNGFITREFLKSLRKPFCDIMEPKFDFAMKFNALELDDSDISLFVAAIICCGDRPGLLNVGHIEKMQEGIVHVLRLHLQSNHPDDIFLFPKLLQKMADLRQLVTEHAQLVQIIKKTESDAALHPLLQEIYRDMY
The experiment in a line: Concentration of compound that affords half-maximum transactivation of human Peroxisome proliferator activated receptor alpha in CHO-K1 cells was determined in vitro;ia means inactive at 10 uM. Type of assay: cell-based.

The target in assay [3] is T2, Peroxisome proliferator-activated receptor alpha. The experiment in a line: Transactivation of human Peroxisome proliferator activated receptor alpha expressed in CHO-K1 cells. Type of assay: cell-based.
Assay [4] has as its target T1, Peroxisome proliferator-activated receptor gamma.
Description: Concentration of compound that affords half-maximum transactivation of human Peroxisome proliferator activated receptor gamma in CHO-K1 cells was determined in vitro

As usually defined, the EC50 is the concentration that produces a half-maximal response. Higher therefore signals weaker potency. With `COc1ccc(CCC(=O)O)cc1C(=O)NCc1ccc(C(F)(F)F)cc1`, the EC50 result in assay [1] is “Not Active”. Take `COc1ccc(CC(Oc2ccccc2)C(=O)O)cc1C(=O)NCc1ccc(C(F)(F)F)cc1` (stereo not drawn): the 50% effective concentration (EC50) entry in assay [1] and in assay [2] was “Not Active” throughout. For the compound `COc1ccc(CC(OC)C(=O)O)cc1C(=O)NCc1ccc(C(F)(F)F)cc1` (stereo not drawn), the 50% effective concentration (EC50) result in assay [1] is given as “Not Active”. For `COc1ccc(C(=O)O)cc1C(=O)NCc1ccc(C(F)(F)F)cc1`, the EC50 entry in assay [1] and in assay [2] was “Not Active” each time. Take `COc1ccc(CC(C(=O)O)C(C)C)cc1C(=O)NCc1ccc(C(F)(F)F)cc1` (stereo not drawn): the EC50 entry in assay [1] is recorded as “Not Active”. `COc1ccc(CC(C)C(=O)O)cc1C(=O)NCc1ccc(C(F)(F)F)cc1` (stereo not drawn): in assay [1], the EC50 result is listed as “Not Active”. Take `COc1ccc(CC(=O)O)cc1C(=O)NCc1ccc(C(F)(F)F)cc1`: the 50% effective concentration (EC50) entry in assay [1] and in assay [2] was “Not Active” in each case.

Turning to `COc1ccc(CCCC(=O)O)cc1C(=O)NCc1ccc(C(F)(F)F)cc1`, the figures for the EC50 in assay [3] and in assay [4] were 2.2 µM and 3 µM, respectively. Regarding `COc1ccc(CC(C)(C)C(=O)O)cc1C(=O)NCc1ccc(C(F)(F)F)cc1`, the concentration giving a half-maximal response (EC50) entry in assay [1] was “Not Active”. As for `CCCC(Cc1ccc(OC)c(C(=O)NCc2ccc(C(F)(F)F)cc2)c1)C(=O)O` (stereo not drawn), the half-maximal effective concentration (EC50) result in assay [1] is reported as “Not Active”. On the same count and under the same terms, then `CCC(CC)(Cc1ccc(OC)c(C(=O)NCc2ccc(C(F)(F)F)cc2)c1)C(=O)O`, with “Not Active”. Regarding `COc1ccc(CC(C(=O)O)c2ccccc2)cc1C(=O)NCc1ccc(C(F)(F)F)cc1` (stereo not drawn), the EC50 result in assay [1] and in assay [2] was “Not Active” throughout. Consider `CC(C)(Oc1ccc(CCNC(=O)c2ccc(Cl)cc2)cc1)C(=O)O` [BEZAFIBRATE], for which, in assay [4], the EC50 was more than 137 µM.
